Results from patent US20250177382A1, “NEK7 INHIBITORS” (Halia Therapeutics, Inc., priority 2021, published 2025).

How the values were obtained:
[1] = system: IL-1β release in THP-1 cells; assay: IL-1β release assay; assay type: cell-based; conditions: Homo sapiens; PMA-differentiated THP-1 cells, LPS + nigericin, cleaved IL-1β by JESS
Procedure: Approximately 1.5 million THP-1 cells were plated in each well of a 6-well TC plate and incubated with 40 nM PMA in RPMI (10% FBS, 1% Penstrep) for 24 hours. The media was then removed and cells were rested in RPMI (10% FBS, 1% Penstrep) for 24 hours after which time the media was removed and cells were pre-treated for 2 hours with various concentrations of compounds of interest (typically serial 3-fold dilution in RPMI+5% FBS, concentrations ranging from 1 μM to 0.5 nM) in RPMI (5% FBS). The media was again removed and cells were incubated with 250 ng/mL LPS and compounds of interest (concentrations as above) in RMPI (5% FBS) for 2 hours. The media was removed for a last time and cells were incubated with 20 μM nigericin and compounds of interest (concentrations as above) in Opti-MEM for 30 minutes. Cell media was then collected and the amount of cleaved IL-1β was determined using a JESS instrument (Protein Simple) and standard protocols. Cleaved Il-1β antibody was obtained from Cell Signaling (catalogue #83186S) and was used at 1:20 dilution in antibody diluent 2. Protein Simple 1× anti-Rabbit HRP secondary antibody was used along with Protein Simple luminol and peroxide for chemiluminescent detection. Primary antibody incubation time was increased from 30 minutes to 60 minutes.
(§1) Representative compounds were tested for inhibitory activity against NEK7 and IL-1β release according to the procedures described above.

[2] = molecular target: T1, full-length recombinant human NEK7 (Homo sapiens, UniProt Q8TDX7); assay: NEK7 enzymatic assay; assay type: biochemical; conditions: casein substrate, [32P]-ATP, radiometric P81 filter assay
T1 construct: full-length recombinant human NEK7; GST (N); purchased SignalChem N09-10G; host or cells: Sf9 insect cells (baculovirus)
T1 sequence (Q8TDX7 whole entry): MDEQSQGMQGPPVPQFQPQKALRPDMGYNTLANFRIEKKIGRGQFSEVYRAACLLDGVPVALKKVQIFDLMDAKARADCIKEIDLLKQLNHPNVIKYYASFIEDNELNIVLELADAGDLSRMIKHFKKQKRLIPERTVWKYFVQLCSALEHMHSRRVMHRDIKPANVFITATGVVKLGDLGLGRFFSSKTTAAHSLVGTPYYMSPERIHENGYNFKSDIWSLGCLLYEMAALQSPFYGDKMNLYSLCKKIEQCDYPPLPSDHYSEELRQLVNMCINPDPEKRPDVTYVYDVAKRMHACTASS
Procedure: Casein substrate (from bovine milk, hydrolyzed and partially dephosphorylated mixture of α, β, and κ caseins, obtained from Sigma Aldrich, catalogue #C4765, diluted in distilled water to a final concentration of 1 mg/mL, assay concentration 20 μM) and full-length recombinant human NEK7 (expressed by baculovirus in Sf9 insect cells using a N-terminal GST tag, obtained from SignalChem, catalogue #N09-10G, […], assay concentration 70 nM) were mixed in assay buffer (20 mM Hepes pH 7.5, 10 mM MgCl2, 1 mM EGTA, 0.02% Brij35, 0.02 mg/mL BSA, 0.1 mM […], 2 mM DTT, 1% DMSO). Compounds of interest (in DMSO, serial 3-fold dilution from 10 μM to 0.5 nM) or control (1% DMSO) were dispensed into the kinase reaction mixture by Acoustic technology (Echo550; nanoliter range). After incubation at room temperature for 20 minutes, the kinase reaction was initiated by addition of [^32P]-ATP (Specific activity 10 μUCi/μl) and the mixture was incubated at room temperature for 2 hours. The reaction was then stopped by spotting the reaction mixture on strips of phosphocellulose P81 paper. Following washing, the radioactivity of the P81 paper was measured and kinase activity data were expressed as the percent remaining kinase activity in test samples compared to vehicle (dimethyl sulfoxide) reactions. IC50 values and curve fits were obtained using Prism (GraphPad Software).
as §1

| IC50 [1] | IC50 [2] | Compound |
| --- | --- | --- |
| 50 to 250 nM | – | CN1CCN(Cc2ccc(NC(=O)Nc3ccc(Oc4ccnc5[nH]cc(C6CC6)c45)cc3F)cc2C(F)(F)F)CC1 [Example I-7, 1-(4-((3-cyclopropyl-1H-pyrrolo[2,3-b]pyridin-4-yl)oxy)-2-fluorophenyl)-3-(4-((4-methylpiperazin-1-yl)methyl)-3-(trifluoromethyl)phenyl)urea] |
| < 50 nM | 500 to 2000 nM | CN1CCC(=Cc2ccc(NC(=O)Nc3ccc(Oc4ccnc5[nH]cc(Cl)c45)cc3F)cc2C(F)(F)F)CC1 [Example I-40, 1-(4-((3-chloro-1H-pyrrolo[2,3-b]pyridin-4-yl)oxy)-2-fluorophenyl)-3-(4-((1-methylpiperidin-4-ylidene)methyl)-3-(trifluoromethyl)phenyl)urea] |
| < 50 nM | < 200 nM | CN1CCN(Cc2ccc(NC(=O)Nc3ccc(Oc4ccnc5[nH]cc(Cl)c45)cn3)cc2C(F)(F)F)CC1 [Example I-24, 1-(5-((3-chloro-1H-pyrrolo[2,3-b]pyridin-4-yl)oxy)pyridin-2-yl)-3-(4-((4-methylpiperazin-1-yl)methyl)-3-(trifluoromethyl)phenyl)urea] |
| < 50 nM | – | Cc1[nH]c2nccc(Oc3ccc(NC(=O)Nc4ccc(CN5CCN(C)CC5)c(C(F)(F)F)c4)c(F)c3)c2c1Cl [Example I-11, 1-(4-((3-chloro-2-methyl-1H-pyrrolo[2,3-b]pyridin-4-yl)oxy)-2-fluorophenyl)-3-(4-((4-methylpiperazin-1-yl)methyl)-3-(trifluoromethyl)phenyl)urea] |
| 250 to 1000 nM | > 2000 nM | CC(=O)N1CCC(Oc2ccc(NC(=O)Nc3ccc(Oc4ccnc5[nH]cc(Cl)c45)cc3F)cc2C(F)(F)F)CC1 [Example I-59, 1-(4-((1-acetylpiperidin-4-yl)oxy)-3-(trifluoromethyl)phenyl)-3-(4-((3-chloro-1H-pyrrolo[2,3-b]pyridin-4-yl)oxy)-2-fluorophenyl)urea] |
| 50 to 250 nM | 200 to 500 nM | CN1CCC(Oc2ncc(NC(=O)Nc3ccc(Oc4ccnc5[nH]cc(Cl)c45)cc3F)cc2C(F)(F)F)CC1 [Example I-58, 1-(4-((3-chloro-1H-pyrrolo[2,3-b]pyridin-4-yl)oxy)-2-fluorophenyl)-3-(6-((1-methylpiperidin-4-yl)oxy)-5-(trifluoromethyl)pyridin-3-yl)urea] |
| < 50 nM | – | CN1CCN(Cc2ccc(NC(=O)Nc3ccc(Oc4ccnc5[nH]cc(Cl)c45)cc3F)cc2C(F)(F)F)CC1 [Example I-1, 1-(4-((3-chloro-1H-pyrrolo[2,3-b]pyridin-4-yl)oxy)-2-fluorophenyl)-3-(4-((4-methylpiperazin-1-yl)methyl)-3-(trifluoromethyl)phenyl)urea] |
| 50 to 250 nM | 200 to 500 nM | Cc1c[nH]c2nccc(Oc3ccc(NC(=O)Nc4ccc(CN5CCN(C)CC5)c(C(F)(F)F)c4)c(F)c3)c12 [Example I-36, 1-(2-fluoro-4-((3-methyl-1H-pyrrolo[2,3-b]pyridin-4-yl)oxy)phenyl)-3-(4-((4-methylpiperazin-1-yl)methyl)-3-(trifluoromethyl)phenyl)urea] |
| 50 to 250 nM | 200 to 500 nM | CN1CCC(Oc2ccc(NC(=O)Nc3ccc(Oc4ccnc5[nH]cc(Cl)c45)cc3F)cc2C(F)(F)F)CC1 [Example I-39, 1-(4-((3-chloro-1H-pyrrolo[2,3-b]pyridin-4-yl)oxy)-2-fluorophenyl)-3-(4-((1-methylpiperidin-4-yl)oxy)-3-(trifluoromethyl)phenyl)urea] |
